Data as given in US20250288683A1, “TETRAHYDROISOQUINOLINE HETEROBIFUNCTIONAL BCL-XL DEGRADERS” (Treeline Biosciences, Inc., priority 2022, published 2025).

Biological target: T1, Human BCL-XL protein (N-terminal HiBiT tagged BCL-XL in HT1080 cells) (Homo sapiens, UniProt Q07817)
T1 construct: expressed in transfected cells; host or cells: HT-1080 (ATCC CCL-121), stably transduced with lentivirus pLV-UBC-N-HiBiT-BCL-XL-PGK-puro and selected with puromycin
Assay: HiBiT based degradation assay
Type: cell-based
Details: HT1080 cells expressing N-terminal HiBiT tagged BCL-XL, normalized with DMSO control
Text: HiBiT Based Degradation Assay
Human BCL-XL protein coding open reading frame fused with N-terminal HiBiT coding sequence was synthesized from Integrated DNA Technologies (IDT). Next, N-HiBiT-BCL-XL sequence was cloned into pLV-UBC-PGK-Puro, a lentivirus plasmid purchased from Vectorbuilder, to generate pLV-UBC-N-HiBiT-BCL-XL-PGK-puro. Lentiviral particles were generated from Lenti-X™ 293T cells (Clontech) by co-transfection of pLV-UBC-N-HiBiT-BCL-XL-PGK-puro plasmids and lentiviral packaging plasmid mix (Cellecta). HT-1080 [HT1080](ATCC CCL-121) cells were infected with the lentivirus, and HT1080 cells stably integrated with the lentiviral vectors were established by incubation with 1 μg/mL puromycin (Thermofisher).
HT1080 cells expressing N-terminal HiBiT tagged BCL-XL were dispensed into a 384-well plate pre-spotted with compounds at varying concentrations. Three thousand cells were seeded into each well in 40 μL of RPMI 1640 media. […] After incubation, luminescence was read on a PHERAstar FSX Plate Reader (BMG). BCL-XL degradation at each indicated concentration was normalized with the DMSO control. The BCL-XL degradation curves were plotted using a four-parameter logistic model. For compounds displaying hook effects, the curve fitting was performed using the bottom point of the hook curves (i.e., the point of Ymin) as the bottom plateau to calculate EC50.

T1 sequence (Q07817 whole entry): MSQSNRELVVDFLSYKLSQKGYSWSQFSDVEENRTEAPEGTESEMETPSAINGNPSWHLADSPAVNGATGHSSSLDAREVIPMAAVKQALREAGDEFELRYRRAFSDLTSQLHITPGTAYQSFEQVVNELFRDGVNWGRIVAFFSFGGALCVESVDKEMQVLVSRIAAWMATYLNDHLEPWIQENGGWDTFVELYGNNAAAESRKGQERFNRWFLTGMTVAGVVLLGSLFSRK

| SMILES | Ymin (24 h) | Ymin (6 h) |
| --- | --- | --- |
| Cc1ncsc1-c1ccc([C@H](C)NC(=O)[C@@H]2C[C@@H](O)CN2C(=O)[C@@H](NC(=O)[C@H](C)CCc2ccc(Oc3cccc(-c4ccc(N5CCc6cccc(C(=O)Nc7nc8ccccc8s7)c6C5)nc4C(=O)O)c3C)cc2)C(C)(C)C)cc1 (single isomer, unassigned) [Compound 143a] | A (Ymin < 50%) | – |
| Cc1ncsc1-c1ccc([C@H](C)NC(=O)[C@@H]2C[C@@H](O)CN2C(=O)[C@@H](NC(=O)CCCCCCCOc2cccc(-c3ccc(N4CCc5cccc(C(=O)Nc6nc7ccccc7s6)c5C4)nc3C(=O)O)c2C)C(C)(C)C)cc1 [Compound 107a, 6-[8-(1,3-benzothiazol-2-ylcarbamoyl)-3,4-dihydro-1H-isoquinolin-2-yl]-3-[3-[8-[[(1S)-1-[(2S,4R)-4-hydroxy-2-[[(1S)-1-[4-(4-methylthiazol-5-yl)phenyl]ethyl]carbamoyl]pyrrolidine-1-carbonyl]-2,2-dimethyl-propyl]amino]-8-oxo-octoxy]-2-methyl-phenyl]pyridine-2-carboxylic acid] | – | B (50% ≤ Ymin < 70%) |
| Cc1ncsc1-c1ccc([C@H](C)NC(=O)[C@@H]2C[C@@H](O)CN2C(=O)[C@@H](NC(=O)CCCCCCCCCNC(=O)c2nc(N3CCc4cccc(C(=O)Nc5nc6ccccc6s5)c4C3)ccc2-c2cnn(Cc3ccccc3)c2C)C(C)(C)C)cc1 [Compound 110a, N-(benzo[d]thiazol-2-yl)-2-(5-(1-benzyl-5-methyl-1H-pyrazol-4-yl)-6-((10-(((S)-1-((2S,4R)-4-hydroxy-2-(((S)-1-(4-(4-methylthiazol-5-yl)phenyl)ethyl)carbamoyl)pyrrolidin-1-yl)-3,3-dimethyl-1-oxobutan-2-yl)amino)-10-oxodecyl)carbamoyl)pyridin-2-yl)-1,2,3,4-tetrahydroisoquinoline-8-carboxamide] | – | A (Ymin < 50%) |
| Cc1ncsc1-c1ccc([C@H](C)NC(=O)[C@@H]2C[C@@H](O)CN2C(=O)[C@@H](NC(=O)[C@@H](C)CCc2ccc(Oc3cccc(-c4ccc(N5CCc6cccc(C(=O)Nc7nc8ccccc8s7)c6C5)nc4C(=O)O)c3C)cc2)C(C)(C)C)cc1 (single isomer, unassigned) [Compound 143b] | A (Ymin < 50%) | – |
| Cc1ncsc1-c1ccc(CNC(=O)[C@@H]2C[C@@H](O)CN2C(=O)[C@@H](NC(=O)C2(F)CC2)C(C)(C)SCCCCCCCCOc2cccc(-c3ccc(N4CCc5cccc(C(=O)Nc6nc7ccccc7s6)c5C4)nc3C(=O)O)c2C)cc1 [Compound 136a, 6-(8-(benzo[d]thiazol-2-ylcarbamoyl)-3,4-dihydroisoquinolin-2 (1H)-yl)-3-(3-((8-(((R)-3-(1-fluorocyclopropane-1-carboxamido)-4-((2S,4R)-4-hydroxy-2-((4-(4-methylthiazol-5-yl)benzyl)carbamoyl)pyrrolidin-1-yl)-2-methyl-4-oxobutan-2-yl)thio)octyl)oxy)-2-methylphenyl)picolinic acid] | A (Ymin < 50%) | – |
| Cc1ncsc1-c1ccc([C@H](C)NC(=O)[C@@H]2C[C@@H](O)CN2C(=O)[C@@H](NC(=O)CCCCCOc2cccc(-c3ccc(N4CCc5cccc(C(=O)Nc6nc7ccccc7s6)c5C4)nc3C(=O)O)c2C)C(C)(C)C)cc1 [Compound 105a, 6-(8-(Benzo[d]thiazol-2-ylcarbamoyl)-3,4-dihydroisoquinolin-2(1H)-yl)-3-(3-((6-(((S)-1-((2S,4R)-4-hydroxy-2-(((S)-1-(4-(4-methylthiazol-5-yl)phenyl)ethyl)carbamoyl)pyrrolidin-1-yl)-3,3-dimethyl-1-oxobutan-2-yl)amino)-6-oxohexyl)oxy)-2-methylphenyl)picolinic acid] | A (Ymin < 50%) | A (Ymin < 50%) |
| Cc1ncsc1-c1ccc([C@H](C)NC(=O)[C@@H]2C[C@@H](O)CN2C(=O)[C@@H](NC(=O)C[C@H](Cc2ccc(Oc3cccc(-c4ccc(N5CCc6cccc(C(=O)Nc7nc8ccccc8s7)c6C5)nc4C(=O)O)c3C)cc2)C(F)(F)F)C(C)(C)C)cc1 (single isomer, unassigned) [Compound 131a] | A (Ymin < 50%) | – |
| Cc1ncsc1-c1ccc([C@H](C)NC(=O)[C@@H]2C[C@@H](O)CN2C(=O)[C@@H](n2cc(CCCCCOc3cccc(-c4ccc(N5CCc6cccc(C(=O)Nc7nc8ccccc8s7)c6C5)nc4C(=O)O)c3C)nn2)C(C)(C)C)cc1 [Compound 126a, 6-[8-(1,3-benzothiazol-2-ylcarbamoyl)-3,4-dihydro-1H-isoquinolin-2-yl]-3-[3-[5-[1-[(1S)-1-[(2S,4R)-4-hydroxy-2-[[(1S)-1-[4-(4-methylthiazol-5-yl)phenyl]ethyl]carbamoyl]pyrrolidine-1-carbonyl]-2,2-dimethyl-propyl]triazol-4-yl]pentoxy]-2-methyl-phenyl]pyridine-2-carboxylic acid] | A (Ymin < 50%) | – |
| Cc1ncsc1-c1ccc([C@@H](NC(=O)[C@@H]2C[C@@H](O)CN2C(=O)[C@@H](NC(=O)C[C@H]2CC[C@H](Oc3cccc(-c4ccc(N5CCc6cccc(C(=O)Nc7nc8ccccc8s7)c6C5)nc4C(=O)O)c3C)CC2)C(C)(C)C)C(F)(F)F)cc1 [Compound 125a, 6-(8-(benzo[d]thiazol-2-ylcarbamoyl)-3,4-dihydroisoquinolin-2 (1H)-yl)-3-(3-(((1S,4r)-4-(2-(((S)-1-((2S,4R)-4-hydroxy-2-(((R)-2,2,2-trifluoro-1-(4-(4-methylthiazol-5-yl)phenyl)ethyl)carbamoyl)pyrrolidin-1-yl)-3,3-dimethyl-1-oxobutan-2-yl)amino)-2-oxoethyl)cyclohexyl)oxy)-2-methylphenyl)picolinic acid] | A (Ymin < 50%) | – |
| Cc1ncsc1-c1ccc([C@H](C)NC(=O)[C@@H]2C[C@@H](O)CN2C(=O)[C@@H](NC(=O)CN2CCC(Oc3cccc(-c4ccc(N5CCc6cccc(C(=O)Nc7nc8ccccc8s7)c6C5)nc4C(=O)O)c3C)CC2)C(C)(C)C)cc1 [Compound 122a, 6-[8-(1,3-benzothiazol-2-ylcarbamoyl)-3,4-dihydro-1H-isoquinolin-2-yl]-3-[3-[[1-[2-[[(1S)-1-[(2S,4R)-4-hydroxy-2-[[(1S)-1-[4-(4-methylthiazol-5-yl)phenyl]ethyl]carbamoyl]pyrrolidine-1-carbonyl]-2,2-dimethyl-propyl]amino]-2-oxo-ethyl]-4-piperidyl]oxy]-2-methyl-phenyl]pyridine-2-carboxylic acid] | B (50% ≤ Ymin < 70%) | – |
| Cc1ncsc1-c1ccc([C@H](C)NC(=O)[C@@H]2C[C@@H](O)CN2C(=O)[C@@H](NC(=O)CCCCCn2nc(C)c(-c3ccc(N4CCc5cccc(C(=O)Nc6nc7ccccc7s6)c5C4)nc3C(=O)O)c2C)C(C)(C)C)cc1 [Compound 101a, 6-[8-(1,3-benzothiazol-2-ylcarbamoyl)-3,4-dihydro-1H-isoquinolin-2-yl]-3-[1-[6-[[(1S)-1-[(2S,4R)-4-hydroxy-2-[[(1S)-1-[4-(4-methylthiazol-5-yl)phenyl]ethyl]carbamoyl]pyrrolidine-1-carbonyl]-2,2-dimethyl-propyl]amino]-6-oxo-hexyl]-3,5-dimethyl-pyrazol-4-yl]pyridine-2-carboxylic acid] | – | A (Ymin < 50%) |
| Cc1ncsc1-c1ccc([C@H](C)NC(=O)[C@@H]2C[C@@H](O)CN2C(=O)[C@@H](NC(=O)CC(C)Cc2ccc(Oc3cccc(-c4ccc(N5CCc6cccc(C(=O)Nc7nc8ccccc8s7)c6C5)nc4C(=O)O)c3C)cc2)C(C)(C)C)cc1 (single isomer, unassigned) [Compound 134b, 6-(8-(benzo[d]thiazol-2-ylcarbamoyl)-3,4-dihydroisoquinolin-2(1H)-yl)-3-(3-(4-((R*)-4-(((S)-1-((2S,4R)-4-hydroxy-2-(((S)-1-(4-(4-methylthiazol-5-yl)phenyl)ethyl)carbamoyl)pyrrolidin-1-yl)-3,3-dimethyl-1-oxobutan-2-yl)amino)-2-methyl-4-oxobutyl)phenoxy)-2-methylphenyl)picolinic acid] | A (Ymin < 50%) | – |
| Cc1ncsc1-c1ccc([C@H](C)NC(=O)[C@@H]2C[C@@H](O)CN2C(=O)[C@@H](NC(=O)C(C)(C)CCc2ccc(Oc3cccc(-c4ccc(N5CCc6cccc(C(=O)Nc7nc8ccccc8s7)c6C5)nc4C(=O)O)c3C)cc2)C(C)(C)C)cc1 [Compound 133a, 6-[8-(1,3-benzothiazol-2-ylcarbamoyl)-3,4-dihydro-1H-isoquinolin-2-yl]-3-[3-[4-[4-[[(1S)-1-[(2S,4R)-4-hydroxy-2-[[(1S)-1-[4-(4-methylthiazol-5-yl)phenyl]ethyl]carbamoyl]pyrrolidine-1-carbonyl]-2,2-dimethyl-propyl]amino]-3,3-dimethyl-4-oxo-butyl]phenoxy]-2-methyl-phenyl]pyridine-2-carboxylic acid] | B (50% ≤ Ymin < 70%) | – |
